Tests used:
[1] = biological target: T1, IVTris fibrils (recombinant Asyn PFF) (Homo sapiens, UniProt P37840); test: [3H]Tg-1-90B saturation binding assay with IVTris fibrils; conditions: 250 nM fibrils
T1 construct: made in house
Experimental: (§1) IVTris fibrils were assembled in vitro by spontaneous nucleation in 20 mM Tris-HCl, pH 8.0, 100 mM NaCl buffer in a total volume of 1500 µL at 2 mg/mL monomer concentration. The incubation was carried out at 37 °C with continuous shaking at 1000 rpm in a Thermomixer (Eppendorf, Framingham, MA, USA) for 72 h. Amplified LBD fibrils were prepared as described in Dhavale et al. and case LBD1 amplified fibrils were used in this study. PD, disease-control and AD insoluble fraction (IF) tissue homogenate was prepared by sequential homogenization of dissected tissue gray matter in a series of detergents followed by centrifugation to obtain insoluble fraction. […]
(§2) A fixed concentration of binding substrates IVTris fibrils (250 nM), amplified LBD fibrils (50 nM), Aβ fibrils (150 nM), tau fibrils (150 nM), PD, AD or disease control homogenate (10 µg/mL) were incubated for 2 h at 37 °C with increasing concentrations of [^3H]Tg-1-90B in a reaction volume of 150 µL in a 96-well plate. […] Filters containing the bound ligand were mixed with 150 µL of Optiphase Supermix scintillation cocktail (PerkinElmer, Waltham, MA, USA) and counted following overnight incubation. […] The dissociation constant (Kd) and the maximal number of binding sites (Bmax) values were determined by fitting the data to the equation Y = Bmax × X/(X + Kd) by non-linear regression using Graphpad Prism software (version 7.0).

[2] = biological target: T2, amplified LBD fibrils (PDB 8FPT) alpha-synuclein (Homo sapiens, UniProt P37840); test: [3H]Tg-1-90B saturation binding assay with amplified LBD fibrils; conditions: 50 nM fibrils
T2 construct: made in house
Experimental: as §1, §2

Kd ([1]; 2 h 37 °C, one site saturable specific binding): 40.1 ± 1.9 nM
average Bmax, IVTris fibrils ([1]; per nmol Asyn): 22.3 ± 0.1 pmol/nmol
Kd ([2]; 2 h 37 °C): 17.5 nM
average Bmax, amplified LBD fibrils ([2]; per nmol Asyn): 20.6 ± 2.5 pmol/nmol
Compound: COc1ccc(/C=C/c2cc(-c3nccs3)on2)cc1 [Tg-1-90B]

Source: PMC12468313, “Use of Amplified Lewy Body Dementia Fibrils and Autoradiography to Characterize Binding of Radioligand Tg-1-90B to Alpha-Synuclein Fibrils in Postmortem Brain Tissue” (Cells, 2025)
